ChEMBL document CHEMBL1212717, “A new screening assay for allosteric inhibitors of cSrc” (Nat Chem Biol, 2009)

Tests used:
[1] = target: T1, Mitogen-activated protein kinase 14 (Homo sapiens, UniProt Q16539)
[2] = target: T2, Proto-oncogene tyrosine-protein kinase Src (Homo sapiens, UniProt P12931)
[3] = target: T1, Mitogen-activated protein kinase 14; conditions: 2 uM
[4] = target: T2, Proto-oncogene tyrosine-protein kinase Src; conditions: 2 uM

T1 sequence (Q16539 whole entry): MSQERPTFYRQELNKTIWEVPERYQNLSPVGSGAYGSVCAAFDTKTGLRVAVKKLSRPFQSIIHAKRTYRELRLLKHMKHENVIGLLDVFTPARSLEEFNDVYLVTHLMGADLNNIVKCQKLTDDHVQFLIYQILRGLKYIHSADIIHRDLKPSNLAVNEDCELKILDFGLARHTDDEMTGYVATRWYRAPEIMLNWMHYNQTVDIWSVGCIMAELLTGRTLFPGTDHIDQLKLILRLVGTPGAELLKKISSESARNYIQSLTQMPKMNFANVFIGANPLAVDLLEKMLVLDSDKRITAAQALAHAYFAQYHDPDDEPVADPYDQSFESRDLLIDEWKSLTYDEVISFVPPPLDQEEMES
T2 sequence (P12931 2-536 limits assumed): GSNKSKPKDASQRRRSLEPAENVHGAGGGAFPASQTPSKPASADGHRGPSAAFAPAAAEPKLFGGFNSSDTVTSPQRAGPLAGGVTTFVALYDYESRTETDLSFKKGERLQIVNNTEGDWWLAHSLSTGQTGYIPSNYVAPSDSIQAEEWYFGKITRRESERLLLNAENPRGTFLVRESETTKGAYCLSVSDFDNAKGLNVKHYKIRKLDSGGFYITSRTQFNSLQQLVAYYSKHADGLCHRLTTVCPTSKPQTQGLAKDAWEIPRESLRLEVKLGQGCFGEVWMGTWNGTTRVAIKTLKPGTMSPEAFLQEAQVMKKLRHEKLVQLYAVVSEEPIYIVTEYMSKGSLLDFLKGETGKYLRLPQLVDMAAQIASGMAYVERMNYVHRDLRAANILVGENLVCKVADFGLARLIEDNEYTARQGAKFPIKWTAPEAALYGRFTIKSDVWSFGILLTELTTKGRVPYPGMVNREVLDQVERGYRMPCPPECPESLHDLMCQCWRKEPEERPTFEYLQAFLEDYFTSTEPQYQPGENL

Kd [1]	IC50 [2]	T1/2 [3]	T1/2 [4]	Structure (SMILES)
Not Active	Not Active	–	–	CC(C)(C)c1cc(NC(=O)Nc2ccc(Cl)cc2)n(-c2c(Cl)cc(C(F)(F)F)cc2Cl)n1
–	–	43.6 s	5.35 s	CC(C)(C)c1cc(NC(=O)Nc2ccc(Cl)cc2)n(-c2cccc(N)c2)n1
